Test systems include SW-620; SK-MEL-5; SF-295; SF-539; MCF7; M14; SN12C; DU-145; U-251; HOP-92; OVCAR-8; SR; Malme-3M; CCRF-CEM; RPMI-8226; NCI-H226; TK-10; HOP-62; KM12; NCI-H522.
Common to all, as to experiment: NCI anticancer screen, dose series, 48 h

The structures appear in SMILES notation.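 Step 1: Grow cells in 96-well plates. Step 2: Expose to compound for 48 hours at 5 concentrations. Step 3: Interpolate endpoints linearly; if unreached, use highest concentration. GI50 is the concentration that inhibits growth by half.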 Calls of active or inactive are those of the source. Rule as the data show it: active = GI50 up to about 1.1 µM and inactive = higher.

For `CCOC(=O)c1cnc2oc3ccc(O)cc3c2c1-c1ccccc1`, the GI50 was > 100 µM (inactive) in the test on SW-620; 29.2 µM (inactive) with SK-MEL-5; 37.2 µM (inactive) in the test on SF-295; 17.3 µM (inactive) in the test with SF-539; 44.7 µM (inactive) in the test on MCF7; 81.3 µM (inactive) with M14. Moreover, the GI50 in the test with SN12C is 37.9 µM (inactive); in the test on DU-145, > 100 µM (inactive); in the test with U-251, 44.8 µM (inactive); with HOP-92 it was 16.3 µM (inactive); with OVCAR-8 it was 12.7 µM (inactive); in the test with SR, 22.6 µM (inactive). Also, the GI50 with Malme-3M was 23 µM (inactive); with CCRF-CEM it was 16.4 µM (inactive); in the test with RPMI-8226 it was 8.73 µM (inactive); in the test with NCI-H226, 32.2 µM (inactive); in the test with TK-10, > 100 µM (inactive).
`O=C1CN(c2cccc(Cl)c2)C(=O)CN1CCN1CC(=O)N(c2cccc(Cl)c2)CC1=O`: the GI50 in the test with SW-620, in the test on HOP-62, with SK-MEL-5, in the test with SF-295, with KM12 and with NCI-H522 was > 100 µM (inactive) each time. Moreover, the GI50 in the test on SF-539, with MCF7, with M14, with SN12C, in the test on DU-145 and in the test on U-251 was > 100 µM (inactive) throughout. Moreover, the GI50 in the test on HOP-92, in the test with OVCAR-8, in the test with SR, in the test with Malme-3M, in the test with CCRF-CEM and in the test on RPMI-8226 was > 100 µM (inactive) each time. Further, the GI50 with TK-10 was > 100 µM (inactive).
On to `COC(=O)C1C=CN(N(C)C)C2=C1C(=O)c1c(O)cccc1C2=O` (configuration not stated), for which the GI50 with SW-620 was 2.28 µM (inactive); with HOP-62 it was 2.68 µM (inactive); with SK-MEL-5, 0.54 µM (active); with SF-295, 1.65 µM (inactive); with KM12, 2.07 µM (inactive); with NCI-H522, 2.48 µM (inactive). For the same compound, the GI50 in the test on MCF7 was 1.95 µM (inactive); in the test on M14 it was 1.69 µM (inactive); in the test on SN12C, 1.73 µM (inactive); in the test with DU-145, 1.58 µM (inactive); in the test on U-251, 3.29 µM (inactive); with OVCAR-8, 2.67 µM (inactive). In addition, the GI50 in the test on SR was 0.152 µM (active); in the test with Malme-3M, 1.53 µM (inactive); in the test with CCRF-CEM, 2.22 µM (inactive); in the test on RPMI-8226 it was 0.887 µM (active); with NCI-H226, 1.87 µM (inactive); with TK-10, 4.27 µM (inactive).
Consider `O=C1Nc2cccc(Cl)c2/C1=C\c1c(-c2ccccc2)nc2n1CCS2`, for which the GI50 is 14.9 µM (inactive) in the test on SW-620; 25.9 µM (inactive) with HOP-62; 19.5 µM (inactive) in the test on SK-MEL-5; 28.7 µM (inactive) with SF-295; 20.8 µM (inactive) with KM12; 30.2 µM (inactive) in the test on NCI-H522. The GI50 is 17.1 µM (inactive) in the test with SF-539; 18.4 µM (inactive) in the test on MCF7; 20.9 µM (inactive) in the test with M14; 16 µM (inactive) with SN12C; 19.8 µM (inactive) with DU-145; 19.6 µM (inactive) in the test on U-251. In addition, the GI50 with HOP-92 was 20 µM (inactive); in the test with OVCAR-8, 24.7 µM (inactive); in the test with SR, 19.8 µM (inactive); with Malme-3M, 20.2 µM (inactive); in the test on CCRF-CEM it was 15 µM (inactive); with RPMI-8226, 16.5 µM (inactive). In addition, the GI50 in the test on TK-10 is 13.2 µM (inactive).
With `CCN(CC)CCC(=O)c1ccc(Oc2ccc(C)cc2)cc1`, the GI50 with SW-620 was 18.7 µM (inactive); in the test with HOP-62, 19.1 µM (inactive); with SF-295, 17.5 µM (inactive); in the test with KM12, 10.9 µM (inactive); in the test on SF-539, 18.8 µM (inactive); in the test on MCF7, 17.6 µM (inactive). For the same compound, the GI50 in the test on M14 was 16.6 µM (inactive); with SN12C, 16.7 µM (inactive); in the test on DU-145, 29.1 µM (inactive); in the test with U-251, 17 µM (inactive); in the test on HOP-92, 23.7 µM (inactive); in the test with OVCAR-8 it was 19.8 µM (inactive). In addition, the GI50 in the test with SR is 26.2 µM (inactive); with Malme-3M, 17.5 µM (inactive); with CCRF-CEM, 26.3 µM (inactive); in the test on RPMI-8226, 7.29 µM (inactive); in the test on NCI-H226 it was 35.2 µM (inactive); in the test on TK-10, 17.7 µM (inactive).
On to `CCc1n[nH]c(=O)n1NC(=O)/C=C\C(=O)O`, for which the GI50 with HOP-62, in the test with SK-MEL-5, in the test on SF-295, in the test on NCI-H522, in the test with SF-539 and in the test on MCF7 was > 100 µM (inactive) throughout. Also, the GI50 in the test on M14, in the test with SN12C, with DU-145, with U-251, with OVCAR-8 and in the test on SR was > 100 µM (inactive) throughout. The GI50 with Malme-3M, in the test with CCRF-CEM, with NCI-H226 and in the test on TK-10 was > 100 µM (inactive) each time.
On to `c1cncc(C2(c3cc4ccccc4[nH]3)COCO2)c1` (configuration not stated), for which the GI50 in the test on SW-620 was > 100 µM (inactive); in the test with HOP-62 it was > 100 µM (inactive); in the test on SK-MEL-5, 38.2 µM (inactive); in the test with SF-295, > 100 µM (inactive); in the test with KM12, > 100 µM (inactive); in the test on SF-539, > 100 µM (inactive). Moreover, the GI50 with MCF7, in the test with M14, in the test on DU-145, in the test on U-251, in the test on HOP-92 and with OVCAR-8 was > 100 µM (inactive) in each case. In addition, the GI50 is > 100 µM (inactive) with SR; > 100 µM (inactive) in the test on Malme-3M; 10.5 µM (inactive) in the test with CCRF-CEM; > 100 µM (inactive) in the test on RPMI-8226; > 100 µM (inactive) in the test with NCI-H226; > 100 µM (inactive) in the test on TK-10.
Regarding `CCOC(=O)c1cnc2oc(/C=N/N3CC(CN4CCOCC4)OC3=O)cc2c1O` (configuration not stated), the GI50 in the test with SW-620, in the test on HOP-62, with SK-MEL-5, in the test with SF-295, with KM12 and in the test on SF-539 was > 100 µM (inactive) in each case. In addition, the GI50 with MCF7, with M14, with SN12C, in the test with DU-145, with U-251 and in the test on HOP-92 was > 100 µM (inactive) throughout. Besides, the GI50 in the test on OVCAR-8, in the test on SR, with Malme-3M, with CCRF-CEM, in the test with RPMI-8226 and in the test with NCI-H226 was > 100 µM (inactive) in each case. For the same compound, the GI50 in the test with TK-10 was > 100 µM (inactive).
As to `CCOC(=O)c1c(NS(=O)(=O)c2ccccc2)sc2c1CCCC2`, the GI50 was 46.5 µM (inactive) with HOP-62; 74.5 µM (inactive) with SK-MEL-5; 43.6 µM (inactive) in the test with SF-295; 22.1 µM (inactive) in the test on KM12; > 100 µM (inactive) in the test with SF-539; 46.7 µM (inactive) with MCF7. The GI50 with M14 is 81.3 µM (inactive); with SN12C it was 66.7 µM (inactive); in the test on DU-145, 89.5 µM (inactive); with OVCAR-8, 56.8 µM (inactive); with SR, 59.8 µM (inactive); in the test on CCRF-CEM, 25.5 µM (inactive). In addition, the GI50 in the test with RPMI-8226 was 26.9 µM (inactive); with NCI-H226, > 100 µM (inactive); with TK-10, 62.8 µM (inactive).
Turning to `CC#CC(O)(C(=O)OCCCN(C)C)C1CCCCC1` (configuration not stated), the GI50 in the test on SW-620, in the test on HOP-62, with SK-MEL-5, in the test on SF-295, with KM12 and in the test with SF-539 was > 100 µM (inactive) each time. Also, the GI50 in the test with MCF7, in the test with M14, in the test on SN12C, in the test on DU-145, in the test with U-251 and in the test with HOP-92 was > 100 µM (inactive) throughout. Moreover, the GI50 with OVCAR-8, in the test on SR, in the test with Malme-3M, in the test on CCRF-CEM, in the test on RPMI-8226 and in the test with NCI-H226 was > 100 µM (inactive) throughout. Also, the GI50 in the test on TK-10 is > 100 µM (inactive).
Turning to `O=C(O)CCO/N=C1/C(=C2/C(=O)Nc3ccccc32)Nc2ccccc21`, the GI50 is 29.7 µM (inactive) in the test on SW-620; 26.4 µM (inactive) in the test on HOP-62; 13.4 µM (inactive) in the test with SK-MEL-5; 35.1 µM (inactive) in the test with SF-295; 1.16 µM (inactive) in the test with KM12; 50.6 µM (inactive) in the test on NCI-H522. The GI50 with SF-539 was 38.3 µM (inactive); with MCF7, 23.3 µM (inactive); with M14, 19.6 µM (inactive); in the test on SN12C it was 23.7 µM (inactive); with DU-145, 17.2 µM (inactive); in the test with U-251, 30.3 µM (inactive). Further, the GI50 in the test on HOP-92 is 36.1 µM (inactive); with OVCAR-8, 38.1 µM (inactive); with SR it was 12 µM (inactive); with Malme-3M it was 54.5 µM (inactive); in the test with CCRF-CEM it was 13.8 µM (inactive); with RPMI-8226 it was 42.2 µM (inactive). Besides, the GI50 in the test on TK-10 is 32.4 µM (inactive).

Source of the values: ChEMBL document CHEMBL1201862, “PubChem BioAssay data set” (2004).
